The source made the active and inactive calls. The rule behind the calls is not given here.
Tests used:
[1] = biological target: Amyloid-beta precursor protein (Homo sapiens, UniProt P05067)
[2] = biological target: Acetylcholinesterase (Homo sapiens) (UniProt P22303); assay: Inhibition of AChE (unknown origin)-induced amyloid beta(1 to 42) aggregation by thioflavin-T fluorescence assay; conditions: concentration not given here
Cholinesterase = Cholinesterase (Equus caballus, UniProt P81908)
Description: Inhibition of equine serum BuChE by Ellman's method

Acetylcholinesterase = Acetylcholinesterase (Electrophorus electricus, UniProt O42275); assay: Inhibition of electric eel AChE by Ellman's method
[3] = biological target: Acetylcholinesterase (Homo sapiens) (UniProt P22303); assay: Mixed type inhibition of AChE (unknown origin) assessed as decrease in Vmax by Lineweaver-Burk plot analysis
[4] = biological target: Acetylcholinesterase (Homo sapiens) (UniProt P22303); assay: Mixed type inhibition of AChE (unknown origin) assessed as increase in Km by Lineweaver-Burk plot analysis
PC-12 = assay: Cytotoxicity against rat PC12 cells assessed as effect on cell viability at <12.5 uM by CCK8 assay; assay type: cell-based
BV-2 = assay: Cytotoxicity against mouse BV-2 cells assessed as effect on cell viability at <12.5 uM by CCK8 assay; assay type: cell-based

Chain of Cholinesterase (P81908 whole entry): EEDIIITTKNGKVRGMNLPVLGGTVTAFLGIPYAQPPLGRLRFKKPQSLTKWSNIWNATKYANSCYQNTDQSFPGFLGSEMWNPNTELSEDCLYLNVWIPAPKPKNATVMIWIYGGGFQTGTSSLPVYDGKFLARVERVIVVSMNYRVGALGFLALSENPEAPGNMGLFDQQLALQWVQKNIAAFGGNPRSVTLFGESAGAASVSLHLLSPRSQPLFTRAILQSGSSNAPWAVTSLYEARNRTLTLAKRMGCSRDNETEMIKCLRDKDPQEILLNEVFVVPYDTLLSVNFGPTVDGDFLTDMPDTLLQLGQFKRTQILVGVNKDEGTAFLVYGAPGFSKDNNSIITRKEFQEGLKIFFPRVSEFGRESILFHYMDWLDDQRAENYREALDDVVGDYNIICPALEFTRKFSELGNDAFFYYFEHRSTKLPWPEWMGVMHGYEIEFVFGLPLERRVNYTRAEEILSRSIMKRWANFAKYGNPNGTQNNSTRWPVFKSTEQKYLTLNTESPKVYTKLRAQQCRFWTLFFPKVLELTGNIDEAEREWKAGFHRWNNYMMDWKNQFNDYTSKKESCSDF
Chain of Acetylcholinesterase (Homo sapiens) (P22303 whole entry): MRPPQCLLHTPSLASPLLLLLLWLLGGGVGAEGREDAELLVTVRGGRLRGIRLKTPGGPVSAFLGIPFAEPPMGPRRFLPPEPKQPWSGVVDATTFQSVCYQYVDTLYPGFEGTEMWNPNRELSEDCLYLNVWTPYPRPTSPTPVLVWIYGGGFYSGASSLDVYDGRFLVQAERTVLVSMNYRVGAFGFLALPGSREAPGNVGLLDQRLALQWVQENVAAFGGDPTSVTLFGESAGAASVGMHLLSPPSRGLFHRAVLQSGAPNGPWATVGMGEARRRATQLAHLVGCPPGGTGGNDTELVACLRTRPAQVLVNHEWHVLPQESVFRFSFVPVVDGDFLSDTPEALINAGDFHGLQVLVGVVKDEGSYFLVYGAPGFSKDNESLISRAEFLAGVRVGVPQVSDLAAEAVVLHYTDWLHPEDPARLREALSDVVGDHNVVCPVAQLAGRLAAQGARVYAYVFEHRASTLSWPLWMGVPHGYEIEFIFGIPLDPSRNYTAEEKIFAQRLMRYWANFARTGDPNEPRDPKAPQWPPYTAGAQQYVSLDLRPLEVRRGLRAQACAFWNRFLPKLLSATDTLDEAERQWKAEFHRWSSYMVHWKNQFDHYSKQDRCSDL
Chain of Amyloid-beta precursor protein (P05067 whole entry): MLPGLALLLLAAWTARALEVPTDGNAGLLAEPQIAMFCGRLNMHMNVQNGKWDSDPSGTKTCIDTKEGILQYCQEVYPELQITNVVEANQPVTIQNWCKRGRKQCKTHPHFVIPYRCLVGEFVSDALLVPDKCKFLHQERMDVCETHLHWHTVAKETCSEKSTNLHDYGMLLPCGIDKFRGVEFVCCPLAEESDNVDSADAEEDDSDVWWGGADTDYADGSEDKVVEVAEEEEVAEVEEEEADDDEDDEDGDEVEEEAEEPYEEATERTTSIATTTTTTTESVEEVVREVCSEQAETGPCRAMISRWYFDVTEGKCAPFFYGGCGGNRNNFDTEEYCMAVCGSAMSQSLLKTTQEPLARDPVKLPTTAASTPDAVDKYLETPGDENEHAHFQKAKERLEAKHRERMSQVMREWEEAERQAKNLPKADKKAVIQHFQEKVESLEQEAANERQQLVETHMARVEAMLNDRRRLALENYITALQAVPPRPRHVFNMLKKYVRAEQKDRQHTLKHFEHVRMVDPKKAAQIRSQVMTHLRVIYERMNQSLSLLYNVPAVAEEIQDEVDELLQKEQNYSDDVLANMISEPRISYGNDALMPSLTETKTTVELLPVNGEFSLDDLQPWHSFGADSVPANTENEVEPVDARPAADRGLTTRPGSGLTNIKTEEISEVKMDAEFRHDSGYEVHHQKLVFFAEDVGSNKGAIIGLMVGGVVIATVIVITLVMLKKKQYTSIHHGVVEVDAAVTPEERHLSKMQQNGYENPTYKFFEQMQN
Chain of Acetylcholinesterase (O42275 whole entry): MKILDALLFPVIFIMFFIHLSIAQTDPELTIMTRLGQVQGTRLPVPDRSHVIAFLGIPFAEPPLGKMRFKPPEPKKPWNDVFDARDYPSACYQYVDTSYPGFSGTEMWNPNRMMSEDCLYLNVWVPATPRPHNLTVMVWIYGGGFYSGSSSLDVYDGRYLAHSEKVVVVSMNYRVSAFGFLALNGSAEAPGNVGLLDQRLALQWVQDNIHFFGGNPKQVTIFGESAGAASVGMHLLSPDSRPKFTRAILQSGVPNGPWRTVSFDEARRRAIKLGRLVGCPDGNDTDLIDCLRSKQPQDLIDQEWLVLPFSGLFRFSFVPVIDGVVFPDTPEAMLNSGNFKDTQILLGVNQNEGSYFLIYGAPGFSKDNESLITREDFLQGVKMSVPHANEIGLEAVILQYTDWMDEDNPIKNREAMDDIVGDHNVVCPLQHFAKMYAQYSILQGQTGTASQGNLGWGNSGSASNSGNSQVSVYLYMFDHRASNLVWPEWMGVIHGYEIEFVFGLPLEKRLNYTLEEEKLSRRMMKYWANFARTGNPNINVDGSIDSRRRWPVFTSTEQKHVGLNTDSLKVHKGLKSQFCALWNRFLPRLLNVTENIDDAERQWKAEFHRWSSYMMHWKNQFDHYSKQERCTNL

Structure (SMILES)	IC50 [1] [nM]	inhibition [2] [%]	IC50 (Cholinesterase) [nM]	IC50 (Acetylcholinesterase) [nM]	inhibition [3]	inhibition [4]	Activity (PC-12)	Activity (BV-2)
O=C(Nc1ccc2nc3n(c(=O)c2c1)CCC3)c1cc2cc(Cl)ccc2[nH]1	1690	52.1	770	260	–	–	–	–
O=C(/C=C/c1cc2ccccc2[nH]1)Nc1ccc2nc3n(c(=O)c2c1)CCC3	3090	–	4470	1650	–	–	–	–
O=C(Nc1ccc2nc3n(c(=O)c2c1)CCC3)c1cc2ccccc2o1	3260	–	1850	1510	–	–	–	–
Cc1cc2nc3n(c(=O)c2cc1NC(=O)c1cc2cc(Cl)ccc2[nH]1)CCC3	5100	–	4670	1080	–	–	–	–
Cc1cc2nc3n(c(=O)c2cc1NC(=O)c1cc2cc(F)ccc2[nH]1)CCC3	3270	–	1720	1350	–	–	–	–
O=C(Nc1ccc2nc3n(c(=O)c2c1)CCC3)c1cc2cc(F)ccc2[nH]1	1560	61.8	750	780	–	–	–	–
COc1ccc2[nH]c(C(=O)Nc3cc4c(=O)n5c(nc4cc3C)CCC5)cc2c1	6100	–	5230	2080	–	–	–	–
O=C(CCCc1cc2ccccc2[nH]1)Nc1ccc2nc3n(c(=O)c2c1)CCC3	5270	–	1600	6350	–	–	–	–
O=C(Cc1cc2ccccc2[nH]1)Nc1ccc2nc3n(c(=O)c2c1)CCC3	1620	–	1380	980	–	–	–	–
O=C(Nc1ccc2nc3n(c(=O)c2c1)CCC3)c1cc2ccccc2s1	2300	–	1900	2510	–	–	–	–
O=C(Nc1ccc2nc3n(c(=O)c2c1)CCC3)c1cc2ccccc2[nH]1	2160	–	900	1560	–	–	–	–
COc1ccc2[nH]c(C(=O)Nc3ccc4nc5n(c(=O)c4c3)CCC5)cc2c1	1210	80	150	120	Active	Active	Non-Toxic	Non-Toxic

— ChEMBL document CHEMBL4808191, “Design, synthesis and biological evaluation of novel deoxyvasicinone-indole as multi-target agents for Alzheimer's disease” (Bioorg Med Chem Lett, 2021)
